Laboratory results published in article PMC6485449 (Clinical cancer research : an official journal of the …, 2013).
Where “and” joins values, the source holds several entries; their conditions need not be identical. Identical values can stand only once. Entries after “also recorded” stand apart in the source; their conditions may differ. Like-named read-outs stand apart in the source and are kept apart here.

How the values were obtained:
[1] = test system: MRC-5 (Normal); experiment: Single-agent 2-D cytotoxicity assay, MRC-5; assay type: cell-based, human
[2] = test system: MDA-MB-231; experiment: Single-agent 2-D cytotoxicity assay, MDA-MB-231; assay type: cell-based; details: Homo sapiens, MDA-MB-231, read-out: SF50 MDA-MB-231
[3] = test system: MX-1 tumor xenografts; experiment: Cisplatin combination study, MX-1 xenograft; assay type: in vivo, mice
[4] = test system: LoVo cells; experiment: Temozolomide potentiation; assay type: cell-based, human
[5] = test system: Capan-1 (BRCA2 deficient); experiment: Single-agent cytotoxicity assay, Capan-1; assay type: cell-based, human
[6] = target: recombinant human PARP1 (Homo sapiens, UniProt P09874); details: for off-rate / on-rate: immobilized rhPARP1, Biacore T200
recombinant human PARP1, sequence (P09874 662-1011): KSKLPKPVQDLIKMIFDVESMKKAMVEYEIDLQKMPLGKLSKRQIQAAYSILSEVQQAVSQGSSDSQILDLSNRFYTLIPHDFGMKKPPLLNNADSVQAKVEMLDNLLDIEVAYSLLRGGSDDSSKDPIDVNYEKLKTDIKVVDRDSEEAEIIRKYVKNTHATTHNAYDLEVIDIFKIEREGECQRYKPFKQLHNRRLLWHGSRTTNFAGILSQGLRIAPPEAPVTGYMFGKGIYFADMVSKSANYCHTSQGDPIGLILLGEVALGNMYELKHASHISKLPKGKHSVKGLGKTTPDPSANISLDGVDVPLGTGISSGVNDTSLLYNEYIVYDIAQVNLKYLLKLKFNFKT

[7] = test system: MDA-MB-468 xenograft; experiment: MDA-MB-468 xenograft, single agent; assay type: in vivo, mice
[8] = Liver microsome stability, dog; assay type: in vitro ADME; details: dogs, two hours, 1 μM
[9] = Combination with platinum drugs in vitro; assay type: cell-based; details: data not shown
[10] = target: CYP2D6 (Homo sapiens, UniProt P10635); experiment: CYP450 inhibition, CYP2D6; assay type: in vitro ADME; details: concentrations up to 10 μM; data not shown
CYP2D6, sequence (P10635 whole entry): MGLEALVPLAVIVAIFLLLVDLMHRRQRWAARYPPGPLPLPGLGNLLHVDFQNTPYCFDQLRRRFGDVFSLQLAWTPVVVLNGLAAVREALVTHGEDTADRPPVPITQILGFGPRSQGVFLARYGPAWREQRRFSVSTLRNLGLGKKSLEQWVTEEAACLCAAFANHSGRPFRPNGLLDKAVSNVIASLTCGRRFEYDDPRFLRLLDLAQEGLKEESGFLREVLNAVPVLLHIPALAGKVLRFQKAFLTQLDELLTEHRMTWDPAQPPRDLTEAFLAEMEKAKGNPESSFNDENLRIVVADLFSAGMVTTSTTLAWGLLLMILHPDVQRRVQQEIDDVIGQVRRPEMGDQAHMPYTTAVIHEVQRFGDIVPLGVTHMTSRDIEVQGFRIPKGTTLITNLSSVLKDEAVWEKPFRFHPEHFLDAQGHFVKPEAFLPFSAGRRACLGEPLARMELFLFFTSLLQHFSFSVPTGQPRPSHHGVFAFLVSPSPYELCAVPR

[11] = target: T1, CYP1A2 (Homo sapiens, UniProt P05177); experiment: CYP450 inhibition, CYP1A2; assay type: in vitro ADME; details: concentrations up to 10 μM; data not shown
T1 sequence (P05177 1-516): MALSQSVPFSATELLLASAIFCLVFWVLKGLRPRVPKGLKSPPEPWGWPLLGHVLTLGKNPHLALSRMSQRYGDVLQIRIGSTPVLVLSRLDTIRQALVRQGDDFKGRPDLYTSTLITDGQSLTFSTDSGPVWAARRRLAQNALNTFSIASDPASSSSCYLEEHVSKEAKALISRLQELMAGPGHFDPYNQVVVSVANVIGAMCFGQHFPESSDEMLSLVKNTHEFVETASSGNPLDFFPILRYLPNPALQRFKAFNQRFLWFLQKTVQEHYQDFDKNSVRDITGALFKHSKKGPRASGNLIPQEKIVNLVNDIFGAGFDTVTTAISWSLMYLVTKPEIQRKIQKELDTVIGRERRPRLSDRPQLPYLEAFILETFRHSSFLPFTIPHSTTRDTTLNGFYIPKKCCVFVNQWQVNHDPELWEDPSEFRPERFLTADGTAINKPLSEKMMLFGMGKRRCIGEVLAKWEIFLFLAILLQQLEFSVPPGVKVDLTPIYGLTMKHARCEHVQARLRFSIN

[12] = test system: PAR synthesis in LoVo cells; experiment: Intracellular PAR formation assay; assay type: cell-based; details: Homo sapiens
[13] = test system: MX-1 tumor xenografts; experiment: Carboplatin combination study, MX-1 xenograft; assay type: in vivo, mice
[14] = target: Poly (ADP-ribose) Glycohydrolase (PARG) (Homo sapiens, UniProt Q86W56); experiment: PARG activity assay; assay type: biochemical; details: concentrations up to 1 μM; data not shown
Poly (ADP-ribose) Glycohydrolase (PARG), sequence (Q86W56 whole entry, species assumed): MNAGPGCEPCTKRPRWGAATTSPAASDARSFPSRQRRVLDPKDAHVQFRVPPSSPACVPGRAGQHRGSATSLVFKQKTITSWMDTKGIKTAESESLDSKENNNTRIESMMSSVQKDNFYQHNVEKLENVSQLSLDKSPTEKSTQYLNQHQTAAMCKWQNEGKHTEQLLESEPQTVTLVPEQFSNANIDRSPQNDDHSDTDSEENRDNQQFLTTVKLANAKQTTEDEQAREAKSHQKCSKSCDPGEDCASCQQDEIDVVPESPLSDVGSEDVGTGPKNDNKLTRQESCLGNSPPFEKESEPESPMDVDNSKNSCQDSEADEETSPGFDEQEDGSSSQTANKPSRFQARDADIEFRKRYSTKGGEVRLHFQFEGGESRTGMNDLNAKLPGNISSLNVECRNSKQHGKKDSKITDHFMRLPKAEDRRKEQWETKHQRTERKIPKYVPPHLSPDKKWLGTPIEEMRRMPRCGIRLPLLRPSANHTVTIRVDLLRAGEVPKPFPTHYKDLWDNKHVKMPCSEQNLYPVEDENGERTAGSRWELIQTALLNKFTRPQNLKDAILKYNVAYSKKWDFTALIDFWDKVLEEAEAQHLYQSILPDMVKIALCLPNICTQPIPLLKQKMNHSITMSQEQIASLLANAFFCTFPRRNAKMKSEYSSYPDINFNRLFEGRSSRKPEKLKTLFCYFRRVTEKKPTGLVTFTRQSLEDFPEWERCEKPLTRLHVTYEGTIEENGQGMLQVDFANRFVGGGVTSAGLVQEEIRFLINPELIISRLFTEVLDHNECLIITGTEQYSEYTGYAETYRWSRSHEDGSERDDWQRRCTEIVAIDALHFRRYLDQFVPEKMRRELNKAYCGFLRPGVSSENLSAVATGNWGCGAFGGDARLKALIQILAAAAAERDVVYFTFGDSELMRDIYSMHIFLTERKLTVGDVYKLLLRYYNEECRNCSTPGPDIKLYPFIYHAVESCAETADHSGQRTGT

[15] = target: CYP2C9 (Homo sapiens, UniProt P11712); experiment: CYP450 inhibition, CYP2C9; assay type: in vitro ADME; details: concentrations up to 10 μM; data not shown
CYP2C9, sequence (P11712 whole entry): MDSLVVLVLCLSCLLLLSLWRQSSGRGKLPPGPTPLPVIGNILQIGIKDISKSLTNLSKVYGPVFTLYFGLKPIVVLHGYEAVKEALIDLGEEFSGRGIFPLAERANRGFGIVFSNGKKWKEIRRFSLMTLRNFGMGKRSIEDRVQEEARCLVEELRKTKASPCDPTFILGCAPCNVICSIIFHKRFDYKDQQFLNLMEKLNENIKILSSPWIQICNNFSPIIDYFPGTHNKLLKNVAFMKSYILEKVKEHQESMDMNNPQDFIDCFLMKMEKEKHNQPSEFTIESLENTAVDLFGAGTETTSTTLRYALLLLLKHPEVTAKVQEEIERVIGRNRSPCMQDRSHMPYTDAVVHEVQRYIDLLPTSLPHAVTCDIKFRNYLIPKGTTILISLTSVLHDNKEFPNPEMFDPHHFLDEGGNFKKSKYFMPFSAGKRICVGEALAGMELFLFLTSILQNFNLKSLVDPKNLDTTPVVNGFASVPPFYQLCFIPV

[16] = test system: MX-1 cells; experiment: SN-38 chemo-sensitization assay; assay type: cell-based, human; details: MX-1 cells in vitro, 5 days
[17] = test system: LNCap xenograft; experiment: LNCap xenograft, single agent; assay type: in vivo, mice; details: 0.33 mg/kg oral QDx28, vs vehicle-treated control
[18] = Liver microsome stability, rat; assay type: in vitro ADME; details: rats, two hours, 1 μM
[19] = target: potassium ion channel hERG (Homo sapiens, UniProt Q12809); experiment: hERG in vitro assay; details: concentrations as high as 100 μM
potassium ion channel hERG, sequence (Q12809 whole entry): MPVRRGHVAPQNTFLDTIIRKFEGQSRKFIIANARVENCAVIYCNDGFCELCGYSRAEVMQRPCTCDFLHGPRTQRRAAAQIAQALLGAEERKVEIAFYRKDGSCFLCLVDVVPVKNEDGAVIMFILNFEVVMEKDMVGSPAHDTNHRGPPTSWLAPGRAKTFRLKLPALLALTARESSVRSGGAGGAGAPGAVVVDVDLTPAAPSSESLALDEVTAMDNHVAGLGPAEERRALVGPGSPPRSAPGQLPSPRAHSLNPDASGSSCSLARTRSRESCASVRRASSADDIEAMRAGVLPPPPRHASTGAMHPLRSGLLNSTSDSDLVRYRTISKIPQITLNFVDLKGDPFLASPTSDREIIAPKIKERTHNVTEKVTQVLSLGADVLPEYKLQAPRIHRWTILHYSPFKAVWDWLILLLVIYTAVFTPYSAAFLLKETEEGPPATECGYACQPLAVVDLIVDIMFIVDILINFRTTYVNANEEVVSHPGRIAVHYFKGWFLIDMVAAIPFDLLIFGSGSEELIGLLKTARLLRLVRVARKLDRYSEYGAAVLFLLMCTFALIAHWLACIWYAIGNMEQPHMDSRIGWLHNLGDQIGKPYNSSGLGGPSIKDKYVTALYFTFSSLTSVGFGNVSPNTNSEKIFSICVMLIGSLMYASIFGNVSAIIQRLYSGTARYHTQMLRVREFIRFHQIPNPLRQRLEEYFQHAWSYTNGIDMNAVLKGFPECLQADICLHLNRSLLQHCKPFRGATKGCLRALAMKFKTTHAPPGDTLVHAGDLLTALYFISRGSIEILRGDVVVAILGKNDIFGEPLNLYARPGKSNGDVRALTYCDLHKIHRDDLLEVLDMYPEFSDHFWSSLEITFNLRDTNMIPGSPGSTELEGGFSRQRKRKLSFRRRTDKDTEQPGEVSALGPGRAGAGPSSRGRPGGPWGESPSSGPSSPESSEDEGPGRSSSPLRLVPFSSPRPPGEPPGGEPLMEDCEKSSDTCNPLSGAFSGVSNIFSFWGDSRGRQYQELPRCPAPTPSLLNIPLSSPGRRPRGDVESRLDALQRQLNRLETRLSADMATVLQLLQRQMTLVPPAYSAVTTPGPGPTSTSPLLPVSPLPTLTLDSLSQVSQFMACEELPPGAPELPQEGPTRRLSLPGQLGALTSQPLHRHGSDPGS

[20] = Liver microsome stability, human; assay type: in vitro ADME; details: humans, two hours, 1 μM
[21] = target: CYP2C19 (Homo sapiens, UniProt P33261); experiment: CYP450 inhibition, CYP2C19; assay type: in vitro ADME; details: concentrations up to 10 μM; data not shown
CYP2C19, sequence (P33261 whole entry): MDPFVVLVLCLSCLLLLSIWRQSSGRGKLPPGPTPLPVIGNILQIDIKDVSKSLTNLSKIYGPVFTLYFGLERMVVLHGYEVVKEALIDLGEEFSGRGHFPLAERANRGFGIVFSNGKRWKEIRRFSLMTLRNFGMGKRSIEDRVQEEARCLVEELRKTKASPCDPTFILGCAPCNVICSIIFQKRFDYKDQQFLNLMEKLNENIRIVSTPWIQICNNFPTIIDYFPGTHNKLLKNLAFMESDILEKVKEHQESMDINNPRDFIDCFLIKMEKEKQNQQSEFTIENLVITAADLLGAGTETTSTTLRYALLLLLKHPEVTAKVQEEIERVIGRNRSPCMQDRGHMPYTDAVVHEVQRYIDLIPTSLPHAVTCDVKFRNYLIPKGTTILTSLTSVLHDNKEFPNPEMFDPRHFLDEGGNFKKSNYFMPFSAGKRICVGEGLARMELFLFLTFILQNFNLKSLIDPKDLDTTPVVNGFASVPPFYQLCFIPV

[22] = target: CYP3A4 (Homo sapiens, UniProt P08684); experiment: CYP450 inhibition, CYP3A4; assay type: in vitro ADME; details: concentrations up to 10 μM; data not shown
CYP3A4, sequence (P08684 whole entry): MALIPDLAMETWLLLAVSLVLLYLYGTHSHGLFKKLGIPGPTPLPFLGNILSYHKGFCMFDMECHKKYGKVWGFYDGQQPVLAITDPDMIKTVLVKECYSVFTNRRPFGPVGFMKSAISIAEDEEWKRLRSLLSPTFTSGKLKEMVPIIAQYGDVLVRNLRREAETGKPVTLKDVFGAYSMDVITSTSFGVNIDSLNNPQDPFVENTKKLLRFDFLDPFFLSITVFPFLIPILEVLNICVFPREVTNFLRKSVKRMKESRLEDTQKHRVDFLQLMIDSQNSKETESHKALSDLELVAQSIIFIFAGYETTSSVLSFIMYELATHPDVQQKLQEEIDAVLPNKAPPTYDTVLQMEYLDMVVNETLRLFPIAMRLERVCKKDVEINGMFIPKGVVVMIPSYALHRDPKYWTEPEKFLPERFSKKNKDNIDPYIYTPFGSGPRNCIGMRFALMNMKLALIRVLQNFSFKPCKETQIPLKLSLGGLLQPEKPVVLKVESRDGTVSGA

[23] = test system: MX-1 tumor PAR levels; experiment: PAR assay in vivo; design: species or system mice
[24] = test system: PC-3 (PTEN deficient); experiment: Single-agent 2-D cytotoxicity assay, PC-3; assay type: cell-based; details: Homo sapiens, read-out: SF50 PC-3 (PTEN deficient)
[25] = test system: MX-1 tumor xenografts; experiment: MX-1 xenograft, single agent; assay type: in vivo, mice
[26] = Homo sapiens, MRC5, read-out: SF50 MRC-5 (Normal)
[27] = Homo sapiens, CAPAN-1, read-out: Capan-1 Cytotoxicity IC50
[28] = Homo sapiens, CAPAN-1, read-out: SF50 Capan-1 (BRCA2 deficient)
[29] = 2 hours after single oral dose (BMN 673 1 mg/kg; olaparib 100 mg/kg)
[30] = 8 hours after single oral dose (BMN 673 1 mg/kg; olaparib 100 mg/kg)
[31] = 24 hours after single oral dose (BMN 673 1 mg/kg; olaparib 100 mg/kg)

SMILES: CNCc1ccc(-c2[nH]c3cc(F)cc4c3c2CCNC4=O)cc1 [Rucaparib, rucaparib]
- IC50 [1, 26]: 8530 nM
- IC50 [2]: 5530 nM

SMILES: N.N.[Cl][Pt][Cl] [cisplatin, reference compound]
- maximum average body weight loss ([3]; cisplatin alone, 6 mg/kg IP): 3%

SMILES: Cn1nnc2c(C(N)=O)ncn2c1=O [TMZ, temozolomide, reference compound]
- inhibition at 200 µM ([4]; Homo sapiens, 120 h, read-out: cell growth inhibition): ~15%

SMILES: C[C@]1(c2nc3c(C(N)=O)cccc3[nH]2)CCCN1 [Veliparib, veliparib]
- IC50 ([5]; read-out: Capan-1 Cytotoxicity IC50, single agent, 50% cell survival reduction): > 10000 nM
- IC50 ([5]; read-out: SF50 Capan-1 (BRCA2 deficient), 2-D cytotoxicity assay): > 10000 nM
- IC50 ([1]; read-out: SF50 MRC-5 (Normal), 2-D cytotoxicity assay): > 10000 nM
- off-rate [6]: 0.0041 s⁻¹
- on-rate [6]: 1.74e+06 M⁻¹ s⁻¹

SMILES: Cn1ncnc1[C@H]1c2n[nH]c(=O)c3cc(F)cc(c23)N[C@@H]1c1ccc(F)cc1 [BMN 673, (8S,9R)-5-fluoro-8-(4-fluorophenyl)-9-(1-methyl-1H-1,2,4-triazol-5-yl)-8,9-dihydro-2H-pyrido[4,3,2-de]phthalazin-3(7H)-one]
- tumor growth delay ([7]; 0.33 mg/kg oral QDx28, vs vehicle-treated control): 15.9 days
- effectiveness of 0.165 mg/kg/dose BIDx28 vs 0.33 mg/kg/dose QDx28 ([7]; MDA-MB-468 xenograft): slightly more effective
- remaining after incubation in liver microsomes [8]: more than 90%
- effect of combining with platinum drugs in vitro [9]: clearly additive effect
- CYP2D6 inhibition [10]: did not inhibit
- IC50 [5, 27]: 5 nM
- IC50 [5, 28]: 5 nM
- CYP1A2 inhibition [11]: did not inhibit
- EC50 ([12]; read-out: Cellular PAR Synthesis EC50): 2.5 nM
- IC50 ([12]; read-out: intracellular PAR formation IC50): 2.5 nM
- potentiation of carboplatin anti-tumor effect in vivo ([13]; BMN 673 0.33 mg/kg oral once-a-day 5 or 8 days plus carboplatin 35 mg/kg IP): significant potentiation
- tolerability ([13]; BMN 673 0.33 mg/kg plus carboplatin 35 mg/kg IP): No animal lethality or significant body weight loss
- IC50 [1, 26]: 310 nM
- effect on PARG activity [14]: no effect
- CYP2C9 inhibition [15]: did not inhibit
- maximum average weight loss ([3]; BMN 673 0.033 mg/kg plus cisplatin 6 mg/kg IP): 3%
- maximum average weight loss ([3]; BMN 673 0.1 mg/kg plus cisplatin 6 mg/kg IP): 5%
- maximum average weight loss ([3]; BMN 673 0.33 mg/kg plus cisplatin 6 mg/kg IP): 6%
- maximum average weight loss ([3]; BMN 673 1 mg/kg plus cisplatin 6 mg/kg IP): 11%
- animal deaths ([3]; BMN 673 1 mg/kg plus cisplatin, Day 20): One animal died
- growth of MX-1 tumor xenografts ([3]; BMN 673 oral once daily days 1-8 plus cisplatin 6 mg/kg IP): significantly inhibited in a dose-dependent manner
- potentiation of the cytotoxic effect of SN38 [16]: potentiated
- tumor growth delay [17]: 22.8 days
- potentiation of TMZ cytotoxicity ([4]; combined with 200 μM TMZ): significant potentiation
- remaining after incubation in liver microsomes [18]: more than 90%
- off-rate [6]: 0.000105 s⁻¹
- on-rate [6]: 368000 M⁻¹ s⁻¹
- dissociation rate, times slower than that of veliparib ([6]; vs veliparib): ~40 times
- hERG inhibition [19]: no significant inhibition
- remaining after incubation in liver microsomes [20]: more than 90%
- CYP2C19 inhibition [21]: did not inhibit
- CYP3A4 inhibition [22]: did not inhibit
- intratumoral PAR level [23, 29]: drastically decreased
- intratumoral PAR level [23, 30]: drastically decreased
- intratumoral PAR level [23, 31]: Partial recovery
- IC50 [24]: 4 nM
- IC50 [2]: 1850 nM
- effect on tumor growth ([25]; 0.1 mg/kg oral once daily, after extended treatment (>21 days)): small effect on tumor growth
- tumor re-establishment after dosing ceased ([25]; 0.165 mg/kg/dose BID x 28, followed eight weeks after dosing ceased): none of the mice had tumor re-growth; also recorded: no re-establishment of tumor
- mice achieving complete response (CR) ([25]; 0.165 mg/kg/dose oral BID, 28 days): all 6 mice and 6/6
- tolerability ([25]; 0.33 mg/kg and 0.1 mg/kg, 28 consecutive once daily oral doses): well tolerated
- mice achieving complete response (CR, tumor impalpable) ([25]; 0.33 mg/kg oral once-a-day, 28 days): four CRs out of six

SMILES: O=C(c1cc(Cc2n[nH]c(=O)c3ccccc23)ccc1F)N1CCN(C(=O)C2CC2)CC1 [Olaparib, olaparib]
- IC50 [5, 27]: 259 nM
- IC50 [5, 28]: 259 nM
- IC50 [1, 26]: 5830 nM
- cisplatin sensitizing effect ([3]; olaparib 100 mg/kg oral once-a-day day 1 to 8 plus cisplatin 6 mg/kg): equivalent to the lowest dose of BMN 673
- maximum body weight loss ([3]; olaparib 100 mg/kg plus cisplatin 6 mg/kg IP): 3%
- intratumoral PAR level [23, 29]: significant decrease
- intratumoral PAR level [23, 30]: partial recovery
- intratumoral PAR level [23, 31]: complete recovery
- IC50 [24]: 787 nM
- IC50 [2]: 6410 nM
